Laboratory results reported in patent US20220030868A1, “FUNGICIDAL HALOMETHYL KETONES AND HYDRATES” (FMC CORPORATION, priority 2018, published 2022).

Legend:
[1] = system: Puccinia recondita f. sp. tritici; assay: Test B: test suspension sprayed on wheat seedlings one day before inoculation with Puccinia recondita f. sp. tritici spores (wheat leaf rust), disease rating; format: in vivo; conditions: 100 = 100% disease control, 0 = no control
Text: General protocol for preparing test suspensions for Tests A-C: the test compounds were first dissolved in acetone in an amount equal to 3% of the final volume and then suspended at the desired concentration (in ppm) in acetone and purified water (50/50 mix by volume) containing 250 ppm of the surfactant PEG400 (polyhydric alcohol esters). The resulting test suspensions were then used in Tests A-C. The test solution was sprayed to the point of run-off on wheat seedlings. The following day the seedlings were inoculated with a spore suspension of Puccinia recondita f. sp. tritici (the causal agent of wheat leaf rust) and incubated in a saturated atmosphere at 20° C. for 24 h, and then moved to a growth chamber at 20° C. for 6 days, after which time disease ratings were made. Results for Tests A-C are given in Table A. In the Table, a rating of 100 indicates 100% disease control and a rating of 0 indicates no disease control (relative to the controls). An asterisk “*” or a double asterisk “**” next to the rating value indicates a 50 ppm or 10 ppm test suspension was used, respectively. A dash (-) indicates the compound was not tested.

Phakopsora pachyrhizi = assay: Test A: test suspension sprayed on soybean seedlings one day before inoculation with Phakopsora pachyrhizi spores (Asian soybean rust), visual disease rating; format: in vivo; conditions: 100 = 100% disease control, 0 = no control
Text: General protocol for preparing test suspensions for Tests A-C: the test compounds were first dissolved in acetone in an amount equal to 3% of the final volume and then suspended at the desired concentration (in ppm) in acetone and purified water (50/50 mix by volume) containing 250 ppm of the surfactant PEG400 (polyhydric alcohol esters). The resulting test suspensions were then used in Tests A-C.
The test solution was sprayed to the point of run-off on soybean seedlings. The following day the seedlings were inoculated with a spore suspension of Phakopsora pachyrhizi (the causal agent of Asian soybean rust) and incubated in a saturated atmosphere at 22° C. for 24 h, and then moved to a growth chamber at 22° C. for 8 days, after which time visual disease ratings were made.
Results for Tests A-C are given in Table A. In the Table, a rating of 100 indicates 100% disease control and a rating of 0 indicates no disease control (relative to the controls). An asterisk “*” or a double asterisk “**” next to the rating value indicates a 50 ppm or 10 ppm test suspension was used, respectively. A dash (-) indicates the compound was not tested.

Row | Structure (SMILES) | Test B rating (disease control) ([1]; 10 ppm test suspension) | Test A rating (disease control) (Phakopsora pachyrhizi; 10 ppm test suspension) | further results
1 | CCOC(=O)C1=NOC(Cc2ccc(OC=C(OCC)C(F)(F)F)cc2)C1 (mixture of isomers) [compound 287] |  |  | Test B rating (disease control) ([1]; 50 ppm test suspension): 0%; Test A rating (disease control) (Phakopsora pachyrhizi; 50 ppm test suspension): 77%
2 | CCOC(=COc1ccc(CC2CC(C(=O)N(C)C)=NO2)cc1)C(F)(F)F (mixture of isomers) [compound 288] |  |  | Test B rating (disease control) ([1]; 50 ppm test suspension): 0%; Test A rating (disease control) (Phakopsora pachyrhizi; 50 ppm test suspension): 96%
3 | CCOC(=COc1ccc(CN2CCC(C(=O)OC)C2)cc1)C(F)(F)F (mixture of isomers) [compound 310] | 0% | 100% | 
4 | CCOC(=O)c1cnn(Cc2ccc(OCC(O)(O)C(F)(F)F)cc2)c1 [Compound 1, ethyl 1-[[4-(3,3,3-trifluoro-2,2-dihydroxypropoxy)phenyl]methyl]-1H-pyrazole-4-carboxylate] |  |  | pest or weed control at 250 ppm ([1]; 250 ppm test suspension): 91%; pest or weed control at 250 ppm (Phakopsora pachyrhizi; Phakopsora pachyrhizi, 250 ppm test suspension): 100%
5 | OC(O)(COc1ccc(OCC(O)(O)C(F)(F)F)cc1)C(F)(F)F [Compound 2] | 32% | 77% | 
6 | CCOC(=O)c1cnn(Cc2ccc(OC(C)C(O)(O)C(F)(F)F)cc2)c1 (stereo not drawn) [Compound 5] | 0% | 0% | 
7 | CCOC(=O)c1cnn(Cc2ccc(OCC(O)(NO)C(F)(F)F)cc2)c1 (stereo not drawn) [Compound 10] | 86% | 100% | 
8 | CCOC(=O)c1cnn(Cc2ccc(OCC3(C(F)(F)F)OCC(C)(C)O3)cc2)c1 (stereo not drawn) [Compound 12, ethyl 1-[[4-[[4,4-dimethyl-2-(trifluoromethyl)-1,3-dioxolan-2-yl]methoxy]-phenyl]methyl]-1H-pyrazole-4-carboxylate] |  |  | pest or weed control at 10 ppm ([1]; 10 ppm test suspension): 0%; pest or weed control at 10 ppm (Phakopsora pachyrhizi; Phakopsora pachyrhizi, 10 ppm test suspension): 13%
9 | CCOC(=O)c1cnn(Cc2ccc(OCC3(C(F)(F)F)OC(=O)CS3)cc2)c1 (stereo not drawn) [Compound 20] | 86% | 98% | 
10 | CCOC(=O)c1cnn(Cc2ccc(OCC3(C(F)(F)F)NCCO3)cc2)c1 (stereo not drawn) [Compound 21] | 23% | 84% | 
11 | CCS(=O)(=O)Cc1ccc(OCC(O)(O)C(F)(F)F)cc1 [Compound 29] | 28% | 84% | 
12 | OC(O)(CCc1ccc(Cn2ccc3ccccc32)cc1)C(F)(F)F [Compound 30] | 0% | 0% | 
13 | CS(=O)(=O)c1ccc(OCC(O)(O)C(F)(F)F)cc1 [Compound 31] | 93% | 44% | 
14 | COC(=O)NN=Cc1ccc(OCC(O)(O)C(F)(F)F)cc1 [Compound 33] | 86% | 96% | 
15 | CN(C)S(=O)(=O)c1ccc(OCC(O)(O)C(F)(F)F)cc1 [Compound 34] | 80% | 0% | 
16 | CCOC(=O)c1cnn(C(C)c2ccc(OCC(O)(O)C(F)(F)F)cc2)c1 (stereo not drawn) [Compound 35] | 32% | 99% | 
17 | O=C(NCC1CC1)c1cnn(Cc2ccc(OCC(O)(O)C(F)(F)F)cc2)c1 [Compound 36] | 0% | 70% | 
18 | COC(=O)c1cnn(Cc2ccc(OCC(O)(O)C(F)(F)F)cc2)c1 [Compound 37] | 86% | 99% | 
19 | C=CC(F)(F)OC(=O)c1cnn(Cc2ccc(OCC(O)(O)C(F)(F)F)cc2)c1 [Compound 38] | 89% | 97% | 
20 | CC(C)OC(=O)c1cnn(Cc2ccc(OCC(O)(O)C(F)(F)F)cc2)c1 [Compound 39] | 79% | 91% | 
21 | C=C(C)COC(=O)c1cnn(Cc2ccc(OCC(O)(O)C(F)(F)F)cc2)c1 [Compound 40] | 68% | 91% | 

Row | Structure (SMILES) | Test B rating (disease control) ([1]; 10 ppm test suspension) | Test A rating (disease control) (Phakopsora pachyrhizi; 10 ppm test suspension) | further results
22 | CN(C)C(=O)C1=NOC(c2ccc(OCC(O)(O)C(F)(F)F)cc2)C1 (stereo not drawn) [Compound 41] | 23% | 92% | 
23 | CCCOC(=O)c1cnn(Cc2ccc(OCC(O)(O)C(F)(F)F)cc2)c1 [Compound 42] | 85% | 99% | 
24 | C=CCOC(=O)c1cnn(Cc2ccc(OCC(O)(O)C(F)(F)F)cc2)c1 [Compound 43] | 60% | 96% | 
25 | C#CCOC(=O)c1cnn(Cc2ccc(OCC(O)(O)C(F)(F)F)cc2)c1 [Compound 44] | 85% | 97% | 
26 | O=C(OCC(F)(F)F)c1cnn(Cc2ccc(OCC(O)(O)C(F)(F)F)cc2)c1 [Compound 45] | 85% | 87% | 
27 | O=C(OCC(F)(F)C(F)(F)F)c1cnn(Cc2ccc(OCC(O)(O)C(F)(F)F)cc2)c1 [Compound 46] | 85% | 64% | 
28 | O=C(OCc1ccccc1)c1cnn(Cc2ccc(OCC(O)(O)C(F)(F)F)cc2)c1 [Compound 47] |  |  | Test B rating (disease control) ([1]; 50 ppm test suspension): 95%; Test A rating (disease control) (Phakopsora pachyrhizi; 50 ppm test suspension): 100%
29 | CCCCCCOC(=O)c1cnn(Cc2ccc(OCC(O)(O)C(F)(F)F)cc2)c1 [Compound 48] |  |  | Test B rating (disease control) ([1]; 50 ppm test suspension): 91%; Test A rating (disease control) (Phakopsora pachyrhizi; 50 ppm test suspension): 100%
30 | O=C(OCc1ccc(Cl)c(Cl)c1)c1cnn(Cc2ccc(OCC(O)(O)C(F)(F)F)cc2)c1 [Compound 49] | 86% | 0% | 
31 | O=C(OCc1ccc(F)c(F)c1)c1cnn(Cc2ccc(OCC(O)(O)C(F)(F)F)cc2)c1 [Compound 50] | 91% | 54% | 
32 | CCOC(=O)c1cnn(Cc2ccc(C(O)CC(O)(O)C(F)(F)F)cc2)c1 (stereo not drawn) [Compound 51] | 0% | 0% | 
33 | CCOC(=O)c1cnn(Cc2ccc(OCC3(C(F)(F)F)OCCCO3)cc2)c1 [Compound 52] | 0% | 99% | 
34 | CCOC(=O)c1cnn(Cc2ccc(CCC(O)(O)C(F)(F)F)cc2)c1 [Compound 66] |  |  | Test B rating (disease control) ([1]; 50 ppm test suspension): 89%; Test A rating (disease control) (Phakopsora pachyrhizi; 50 ppm test suspension): 92%
35 | O=C(NCC(F)(F)F)c1csc(Cc2ccc(OCC(O)(O)C(F)(F)F)cc2)n1 [Compound 68] | 95% | 100% | 
36 | O=C(NCC1CC1)c1csc(Cc2ccc(OCC(O)(O)C(F)(F)F)cc2)n1 [Compound 69] | 96% | 98% | 
37 | O=C(NCC(F)(F)F)c1csc(Cc2ccc(OCC3(C(F)(F)F)OCCO3)cc2)n1 [Compound 70] |  |  | Test B rating (disease control) ([1]; 250 ppm test suspension): 100%; Test A rating (disease control) (Phakopsora pachyrhizi; 250 ppm test suspension): 100%
38 | CC(=O)c1ccc(OCC(O)(O)C(F)(F)F)cc1 [Compound 80] |  |  | Test B rating (disease control) ([1]; 50 ppm test suspension): 100%; Test A rating (disease control) (Phakopsora pachyrhizi; 50 ppm test suspension): 99%
39 | CCO/C(=C\Oc1ccc(Cn2ncnc2C#N)cc1)C(F)(F)F [Compound 81] | 0% | 0% | 
40 | CCO/C(=C\Oc1ccc(Cn2cnc(C#N)n2)cc1)C(F)(F)F [Compound 82] | 0% | 97% | 
41 | CCOC(=O)C=CCOc1ccc(OCC(O)(O)C(F)(F)F)cc1 [Compound 97] |  |  | Test B rating (disease control) ([1]; 50 ppm test suspension): 0%; Test A rating (disease control) (Phakopsora pachyrhizi; 50 ppm test suspension): 94%
42 | CCO/C(=C\Oc1ccc(Cn2ncnc2C(=O)OC)cc1)C(F)(F)F [Compound 122] | 0% | 0% | 
